Results taken from PMC11045757, “Group 3 medulloblastoma transcriptional networks collapse under domain specific EP300/CBP inhibition” (Nature Communications, 2024).

What was measured:
[1] = target: T1, BRD4-BD1 (BRD4-1) (Homo sapiens, UniProt O60885); experiment: Isothermal titration calorimetry (ITC); type: binding; conditions: single ITC experiment, data fit ± SEM
T1 construct: BRD4-BD1 (residues 44-168); 6xHis (cleaved yes); host or cells: E. coli BL21 (DE3) RIL
Description: At OD600 of 0.6, the culture was cooled down to 18 °C and induced with 0.1 mM IPTG. After 18 h growth, the culture was harvested by centrifugation at 6000 × g for 25 min and stored at -80 °C. Harvested cell pellets were re-suspended in 50 mM Na/K phosphate buffer (pH 7.4) containing 100 mM NaCl, 40 mM imidazole, 0.01% w/v lysozyme and 0.01% v/v Triton X-100 at 4 °C for 1 h, subjected to sonication and the lysate was clarified by centrifugation (30,000 × g for 45 min at 4 °C). Proteins were purified by FPLC at 4 °C using columns and chromatography materials from GE Healthcare. […] Proteins were purified to homogeneity by size exclusion chromatography using Superdex 75 equilibrated with elution buffer (50 mM HEPES pH 7.5, 100 mM NaCl, 2 mM DTT). All BRDs eluted as monomeric protein and were of crystallization grade quality (>95% purity as judged by SDS-PAGE). Pool fractions were combined, concentrated to 10–12 mg/ml, and aliquots were flash-frozen in liquid N2 and stored at −80 °C.
All experiments were conducted using an PEAQ-ITC calorimeter (Malvern Scientific). BRDs were buffer exchanged using PD10 columns (GE life sciences) into 50 mM HEPES pH7.5 and 100 mM NaCl (ITC buffer) before the experiment and concentrated to ∼10 mg/mL. Experiments were carried out in ITC buffer while stirring at 750 rpm through reverse titration. The microsyringe (40 μL load volume) was loaded with the protein sample (250–600 μM protein in ITC buffer) and inserted into the calorimetric cell (0.2 mL cell volume) consisting of compound (20–60 μM in ITC buffer). All titrations were conducted using an initial control injection of 0.2 μL followed by 13 identical injections (~3 μL per injection) with a duration of 2 s (per injection) and a spacing of 150 s between injections. The ratio of protein/compound was optimized to ensure complete saturation of the titrant before the final injection to ensure proper baseline determination. Data were corrected for dilution and analyzed using the MicroCal Origin software to determine the enthalpies of binding (ΔH) and binding constants as described. Thermodynamic parameters were calculated using the basic equation of thermodynamics (ΔG = ΔH − TΔS = −RTlnKB) where ΔG, ΔH and ΔS are the changes in free energy, enthalpy and entropy of binding, respectively. A single binding site model was used for all ligand-protein interactions.

[2] = target: T2, BAZ2A (Homo sapiens, UniProt Q9UIF9); experiment: BromoScan profiling (DiscoverX); type: binding; conditions: read-out: Percent Control BAZ2A
T2 construct: purchased Eurofins DiscoverX (BROMOscan)
T2 sequence (Q9UIF9 whole entry): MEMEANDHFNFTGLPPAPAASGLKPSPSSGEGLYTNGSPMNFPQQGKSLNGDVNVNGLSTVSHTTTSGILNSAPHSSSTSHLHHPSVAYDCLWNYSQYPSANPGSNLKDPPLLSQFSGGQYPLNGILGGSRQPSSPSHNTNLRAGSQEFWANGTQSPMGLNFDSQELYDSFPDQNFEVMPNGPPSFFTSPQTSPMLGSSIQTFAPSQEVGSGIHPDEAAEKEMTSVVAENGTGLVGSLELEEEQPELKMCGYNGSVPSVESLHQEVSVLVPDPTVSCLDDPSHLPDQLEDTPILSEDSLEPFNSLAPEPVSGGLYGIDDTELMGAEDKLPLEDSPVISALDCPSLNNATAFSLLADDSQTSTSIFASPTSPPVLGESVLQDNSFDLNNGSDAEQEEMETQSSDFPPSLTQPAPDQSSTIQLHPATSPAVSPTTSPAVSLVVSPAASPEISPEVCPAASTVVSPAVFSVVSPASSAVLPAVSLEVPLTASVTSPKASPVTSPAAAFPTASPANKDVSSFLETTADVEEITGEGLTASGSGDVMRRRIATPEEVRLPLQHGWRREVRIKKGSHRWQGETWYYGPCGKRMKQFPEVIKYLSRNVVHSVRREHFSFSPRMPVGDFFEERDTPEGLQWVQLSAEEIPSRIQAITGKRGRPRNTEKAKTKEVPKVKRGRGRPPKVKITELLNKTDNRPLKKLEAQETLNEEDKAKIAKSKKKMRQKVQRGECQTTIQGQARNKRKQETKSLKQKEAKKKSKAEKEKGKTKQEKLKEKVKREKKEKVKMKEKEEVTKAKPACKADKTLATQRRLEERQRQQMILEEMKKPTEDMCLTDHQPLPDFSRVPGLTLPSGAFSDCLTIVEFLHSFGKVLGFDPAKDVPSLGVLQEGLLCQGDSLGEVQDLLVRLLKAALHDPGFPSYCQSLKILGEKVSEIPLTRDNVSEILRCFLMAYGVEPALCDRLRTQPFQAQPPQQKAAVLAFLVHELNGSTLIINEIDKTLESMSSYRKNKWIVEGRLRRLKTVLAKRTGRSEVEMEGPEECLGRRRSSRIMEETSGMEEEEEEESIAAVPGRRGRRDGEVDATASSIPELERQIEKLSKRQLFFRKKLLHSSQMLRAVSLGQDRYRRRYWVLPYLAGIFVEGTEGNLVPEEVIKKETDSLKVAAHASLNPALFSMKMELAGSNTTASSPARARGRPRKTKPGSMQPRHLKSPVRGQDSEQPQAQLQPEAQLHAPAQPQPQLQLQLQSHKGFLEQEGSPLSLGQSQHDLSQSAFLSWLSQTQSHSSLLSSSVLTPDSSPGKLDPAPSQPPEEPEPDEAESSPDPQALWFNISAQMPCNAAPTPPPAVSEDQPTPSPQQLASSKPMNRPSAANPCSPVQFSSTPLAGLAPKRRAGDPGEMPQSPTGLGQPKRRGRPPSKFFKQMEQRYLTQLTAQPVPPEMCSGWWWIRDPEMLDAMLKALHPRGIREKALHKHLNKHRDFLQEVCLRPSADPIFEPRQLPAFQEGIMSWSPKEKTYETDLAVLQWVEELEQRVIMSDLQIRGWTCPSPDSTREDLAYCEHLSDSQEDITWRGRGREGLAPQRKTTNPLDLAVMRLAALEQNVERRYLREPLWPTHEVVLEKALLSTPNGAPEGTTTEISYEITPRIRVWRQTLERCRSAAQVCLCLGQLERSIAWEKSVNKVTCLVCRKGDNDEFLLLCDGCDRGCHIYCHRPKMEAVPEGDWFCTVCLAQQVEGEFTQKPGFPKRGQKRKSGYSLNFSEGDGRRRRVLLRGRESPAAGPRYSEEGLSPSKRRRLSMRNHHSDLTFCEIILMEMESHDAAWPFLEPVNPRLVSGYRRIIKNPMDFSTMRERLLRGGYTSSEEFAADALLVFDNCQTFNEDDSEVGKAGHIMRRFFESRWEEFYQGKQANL

[3] = target: T3, BRD1 (Homo sapiens, UniProt O95696); experiment: BromoScan profiling (DiscoverX); type: binding; conditions: read-out: Percent Control BRD1
T3 construct: purchased Eurofins DiscoverX (BROMOscan)
T3 sequence (O95696 whole entry): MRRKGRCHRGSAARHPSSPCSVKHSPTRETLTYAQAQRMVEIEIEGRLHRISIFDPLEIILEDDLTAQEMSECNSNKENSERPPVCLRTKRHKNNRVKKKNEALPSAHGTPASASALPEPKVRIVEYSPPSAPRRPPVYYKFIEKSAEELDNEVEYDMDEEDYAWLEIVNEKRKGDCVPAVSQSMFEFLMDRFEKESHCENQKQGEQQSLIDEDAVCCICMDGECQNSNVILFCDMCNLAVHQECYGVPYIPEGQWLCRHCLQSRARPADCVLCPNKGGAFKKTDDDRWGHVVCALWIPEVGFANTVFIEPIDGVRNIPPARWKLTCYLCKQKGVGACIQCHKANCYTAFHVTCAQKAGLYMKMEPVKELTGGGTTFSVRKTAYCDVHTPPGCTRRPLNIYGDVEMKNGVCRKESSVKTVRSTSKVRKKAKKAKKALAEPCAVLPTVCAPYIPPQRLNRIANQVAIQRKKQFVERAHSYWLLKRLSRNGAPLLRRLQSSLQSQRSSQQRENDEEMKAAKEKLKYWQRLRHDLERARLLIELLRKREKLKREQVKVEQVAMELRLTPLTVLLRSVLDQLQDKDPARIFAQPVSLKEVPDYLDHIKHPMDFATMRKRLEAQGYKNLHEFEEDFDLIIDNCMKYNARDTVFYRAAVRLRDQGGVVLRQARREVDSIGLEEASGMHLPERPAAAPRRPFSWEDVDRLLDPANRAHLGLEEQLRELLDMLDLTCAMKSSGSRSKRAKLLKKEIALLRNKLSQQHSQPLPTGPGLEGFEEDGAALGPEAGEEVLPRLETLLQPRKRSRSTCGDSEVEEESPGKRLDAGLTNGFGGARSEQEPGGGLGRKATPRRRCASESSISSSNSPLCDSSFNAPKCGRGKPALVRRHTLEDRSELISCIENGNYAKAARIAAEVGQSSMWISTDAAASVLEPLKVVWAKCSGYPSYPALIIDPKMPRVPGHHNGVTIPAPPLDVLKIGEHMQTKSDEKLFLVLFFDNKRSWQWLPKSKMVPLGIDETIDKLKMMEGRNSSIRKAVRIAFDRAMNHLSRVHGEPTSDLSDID

[4] = target: T4, BRD2(2) (Homo sapiens, UniProt P25440); experiment: BromoScan profiling (DiscoverX); type: binding; conditions: read-out: Percent Control BRD2(2)
T4 construct: BRD2(2); purchased Eurofins DiscoverX (BROMOscan)
T4 sequence (P25440 348-455 limits assumed): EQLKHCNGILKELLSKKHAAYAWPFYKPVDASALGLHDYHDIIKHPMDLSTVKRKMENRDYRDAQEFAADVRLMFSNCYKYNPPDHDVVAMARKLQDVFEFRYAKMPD

[5] = target: T5, BRD4(1) (Homo sapiens, UniProt O60885); experiment: BromoScan profiling (DiscoverX); type: binding; conditions: read-out: Percent Control BRD4(1)
T5 construct: BRD4(1); purchased Eurofins DiscoverX (BROMOscan)

[6] = target: T6, BRD4(2) (Homo sapiens, UniProt O60885); experiment: BromoScan profiling (DiscoverX); type: binding; conditions: read-out: Percent Control BRD4(2)
T6 construct: BRD4(2); purchased Eurofins DiscoverX (BROMOscan)

[7] = target: T7, BRPF3 (Homo sapiens, UniProt Q9ULD4); experiment: BromoScan profiling (DiscoverX); type: binding; conditions: read-out: Percent Control BRPF3
T7 construct: purchased Eurofins DiscoverX (BROMOscan)
T7 sequence (Q9ULD4 whole entry): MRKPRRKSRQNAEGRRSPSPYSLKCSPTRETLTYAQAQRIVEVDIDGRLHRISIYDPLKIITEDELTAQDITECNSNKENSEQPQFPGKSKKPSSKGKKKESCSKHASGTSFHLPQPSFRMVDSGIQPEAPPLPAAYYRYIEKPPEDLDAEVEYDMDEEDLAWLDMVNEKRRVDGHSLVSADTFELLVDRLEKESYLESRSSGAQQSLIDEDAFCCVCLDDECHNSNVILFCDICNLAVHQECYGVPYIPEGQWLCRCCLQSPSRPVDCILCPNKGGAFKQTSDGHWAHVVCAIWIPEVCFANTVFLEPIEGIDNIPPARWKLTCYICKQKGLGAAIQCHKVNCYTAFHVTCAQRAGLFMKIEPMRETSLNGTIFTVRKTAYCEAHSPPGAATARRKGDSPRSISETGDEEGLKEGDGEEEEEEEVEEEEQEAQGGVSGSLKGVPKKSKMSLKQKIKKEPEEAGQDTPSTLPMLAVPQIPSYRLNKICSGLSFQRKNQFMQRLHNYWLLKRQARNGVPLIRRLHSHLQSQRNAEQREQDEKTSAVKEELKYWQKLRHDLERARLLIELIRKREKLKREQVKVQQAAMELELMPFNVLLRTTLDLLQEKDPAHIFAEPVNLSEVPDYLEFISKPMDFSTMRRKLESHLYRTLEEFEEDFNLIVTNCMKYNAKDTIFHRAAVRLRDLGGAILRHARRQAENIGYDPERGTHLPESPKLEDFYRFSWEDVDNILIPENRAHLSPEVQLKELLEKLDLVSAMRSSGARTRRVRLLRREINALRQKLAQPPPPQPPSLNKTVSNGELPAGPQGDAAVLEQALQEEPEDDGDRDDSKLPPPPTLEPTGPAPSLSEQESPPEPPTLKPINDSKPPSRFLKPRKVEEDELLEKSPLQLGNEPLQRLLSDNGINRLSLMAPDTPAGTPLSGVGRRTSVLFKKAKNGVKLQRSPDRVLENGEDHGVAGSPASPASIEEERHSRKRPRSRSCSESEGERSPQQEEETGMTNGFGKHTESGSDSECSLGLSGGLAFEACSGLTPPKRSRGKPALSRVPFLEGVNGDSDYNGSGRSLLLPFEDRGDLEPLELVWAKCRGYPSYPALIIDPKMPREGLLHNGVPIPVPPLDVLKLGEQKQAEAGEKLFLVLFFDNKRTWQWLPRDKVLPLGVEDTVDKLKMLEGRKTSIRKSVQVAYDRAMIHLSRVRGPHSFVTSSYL

[8] = target: T8, PBRM1(5) (Homo sapiens, UniProt Q86U86); experiment: BromoScan profiling (DiscoverX); type: binding; conditions: read-out: Percent Control PBRM1(5)
T8 construct: PBRM1(5); purchased Eurofins DiscoverX (BROMOscan)
T8 sequence (Q86U86 645-766 limits assumed): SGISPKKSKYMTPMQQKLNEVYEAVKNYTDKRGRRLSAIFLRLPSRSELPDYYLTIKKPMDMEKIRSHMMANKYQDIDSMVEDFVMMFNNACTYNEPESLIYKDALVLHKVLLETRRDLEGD

[9] = target: T9, TAF1(2) (Homo sapiens, UniProt P21675); experiment: BromoScan profiling (DiscoverX); type: binding; conditions: read-out: Percent Control TAF1(2)
T9 construct: TAF1(2); purchased Eurofins DiscoverX (BROMOscan)
T9 sequence (P21675 1519-1656 limits assumed): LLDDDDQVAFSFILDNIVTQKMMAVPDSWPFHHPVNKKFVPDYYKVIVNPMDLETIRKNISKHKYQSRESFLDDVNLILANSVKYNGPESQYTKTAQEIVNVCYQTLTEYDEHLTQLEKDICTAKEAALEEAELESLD

[10] = target: T10, TRIM24(PHD,Bromo.) (Homo sapiens, UniProt O15164); experiment: BromoScan profiling (DiscoverX); type: binding; conditions: read-out: Percent Control TRIM24(PHD,Bromo.)
T10 construct: purchased Eurofins DiscoverX (BROMOscan)
T10 sequence (O15164 824-1006 limits assumed): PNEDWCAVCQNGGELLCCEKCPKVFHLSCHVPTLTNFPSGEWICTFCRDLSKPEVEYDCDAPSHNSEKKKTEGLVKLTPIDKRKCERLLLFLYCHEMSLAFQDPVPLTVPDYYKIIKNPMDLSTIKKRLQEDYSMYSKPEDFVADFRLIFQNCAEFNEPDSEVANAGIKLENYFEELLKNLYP

[11] = Brain tissue concentration after i.p. dosing (LC-MS/MS); type: in vivo, female CD-1 nude mice; conditions: below lower limit of quantitation
Description: One of the most aggressive MB tumor subtypes are Group 3 medulloblastoma (G3MB), which are commonly characterized by overexpression of the driver oncogene c-MYC due to gene amplification in 17% of cases[40],[42],[43]. These tumors are associated with poor patient survival. […] We sacrificed treated mice at three timepoints after dosing (8, 16, 24 h) and perfused the murine vasculature with PBS to eliminate contaminating blood from the brain.
All animal studies were approved by the St. Jude Children’s Research Hospital Animal Care and Use Committee and performed in accordance with best practices outlined by the NIH Office of Laboratory Animal Welfare. […]
Brain samples were homogenized using a FastPrep-24 system (MP Biomedicals, Santa Ana, CA), and stored at -80 °C until analysis by qualified liquid chromatography–tandem mass spectrometry (LC-MS/MS) assay. […] Plasma and brain homogenate samples were precipitated, and extracted supernatant was analyzed on an AB Sciex ExionLC high performance liquid chromatography system via an AB Sciex ExionLC autosampler. For quantitation, a linear model (1/X^2 weighting) fit the plasma and brian homogenate calibrators across the 1 to 500 ng/mL range, with a correlation coefficient (R) of ≥0.9967. […] No matrix effects, ion enhancement or suppression, were detected in blank CD-1 mouse plasma or NSG brain homogenates.

Kd [1]: 403 ± 137 nM | remaining binding at 1 µM [2]: 79% | remaining binding at 1 µM [3]: 88% | remaining binding at 1 µM [4]: 57% | remaining binding at 1 µM [5]: 3.3% | remaining binding at 1 µM [6]: 75% | remaining binding at 1 µM [7]: 75% | remaining binding at 1 µM [8]: 71% | remaining binding at 1 µM [9]: 69% | remaining binding at 1 µM [10]: 54% | brain tissue concentration ([11]; 25 or 50 mg/kg i.p., 8, 16, 24 h): < 6 ng/mL | brain concentration ([11]; i.p., 16 and 24 hrs): < 6 ng/mL
SMILES: CO[C@H]1CC[C@H](n2c([C@@H]3CCCC(=O)N3c3ccc(F)c(F)c3)nc3cc(-c4c(C)noc4C)ccc32)CC1 [CCS1477]
